From BindingDB's records for doi:10.1021/acs.jmedchem.1c01452 (Zhengzhou University, 2021)

How the values were obtained:
[1] = Inhibition of ABCB1 (unknown origin) expressed in HEK293T cells assessed as reduction in colchicine IC50 at 1 uM pre-incubated for 4 hrs followed by colchicine addition and measured after 72 hrs by MTT assay
[2] = Inhibition of ABCB1 (unknown origin) expressed in HEK293T cells assessed as reduction in paclitaxel IC50 at 1 uM pre-incubated for 4 hrs followed by paclitaxel addition and measured after 72 hrs by MTT assay
[3] = Inhibition of ABCB1 (unknown origin) expressed in HEK293T cells assessed as reduction in colchicine IC50 at 0.5 uM pre-incubated for 4 hrs followed by colchicine addition and measured after 72 hrs by MTT assay
[4] = Inhibition of ABCB1 (unknown origin) expressed in HEK293T cells assessed as reduction in paclitaxel IC50 at 2 uM pre-incubated for 4 hrs followed by paclitaxel addition and measured after 72 hrs by MTT assay
[5] = Inhibition of ABCB1 (unknown origin) expressed in HEK293T cells assessed as reduction in colchicine IC50 at 2 uM pre-incubated for 4 hrs followed by colchicine addition and measured after 72 hrs by MTT assay
[6] = Inhibition of ABCB1 (unknown origin) expressed in HEK293T cells assessed as reduction in paclitaxel IC50 at 0.5 uM pre-incubated for 4 hrs followed by paclitaxel addition and measured after 72 hrs by MTT assay

IC50 [1]: 101 µM
IC50 [2]: 12.2 µM
IC50 [3]: 321 µM
IC50 [4]: 3.6 µM
IC50 [5]: 22.2 µM
IC50 [6]: 30.5 µM
SMILES: COc1cc2ncnc(-c3c(-c4ccccc4)n(Cc4ccccc4Br)c4ccccc34)c2cc1OCCCN1CCOCC1
